Test results as given in patent US20050197350A1, “Novel quinoline, tetrahydroquinazoline, and pyrimidine derivatives and methods of treatment related to the use thereof” (TAISHO PHARMACEUTICAL CO., LTD., priority 2003, published 2005).

These compounds were tested on MCH receptors (assay: MCH receptor activity class (method not given)). Conditions: MCH receptor activity class 1-3 (percent of control at 10^-7 M or IC50).

Row | Structure (SMILES) | class
1 | COc1ccc(C)cc1NC(=S)N[C@H]1CC[C@@H](Nc2nccc(N(C)C)n2)CC1 [compound 2315] | 3 (Class 3 The value of percent of control at 10^−7 M was more than 60% or the value of IC50 was more than 200 nM.)
2 | CN(C)c1ccnc(N[C@H]2CC[C@@H](NC(=S)Nc3c(Cl)cc(Cl)cc3Cl)CC2)n1 [compound 2319] | 3 (Class 3 The value of percent of control at 10^−7 M was more than 60% or the value of IC50 was more than 200 nM.)
3 | CN(C)c1ccnc(N[C@H]2CC[C@@H](CNC(=O)Nc3c(Cl)cc(Cl)cc3Cl)CC2)n1 [compound 2415, N-[(cis-4-{[4-(dimethylamino)pyrimidin-2-yl]amino}cyclohexyl)methyl]-N′-(2,4,6-trichlorophenyl)urea] | 1 (Class 1: The value of percent of control at 10^−7 M was less than 40% or the value of IC50 was less than 50 nM.)

Same assay, conditions: MCH receptor; class by percent of control at 10^-7 M or IC50

Row | Structure (SMILES) | class
4 | CN(C)c1nc(N[C@H]2CC[C@@H](NC(=O)Nc3ccc(C(C)(C)C)cc3)CC2)nc2c1CCCC2 [compound 1918] | 3 (Class 3 The value of percent of control at 10^−7 M was more than 60% or the value of IC50 was more than 200 nM.)
5 | CN(C)c1nc(N[C@H]2CC[C@@H](NC(=O)Nc3ccccc3C#N)CC2)nc2c1CCCC2 [compound 1915] | 3 (Class 3 The value of percent of control at 10^−7 M was more than 60% or the value of IC50 was more than 200 nM.)
6 | COc1cccc(CC(=O)NC[C@H]2CC[C@@H](Nc3cc(N(C)C)c4ccccc4n3)CC2)c1 [compound 194] | 3 (Class 3 The value of percent of control at 10^−7 M was more than 60% or the value of IC50 was more than 200 nM.)
7 | Cc1ccc(NC(=S)N[C@H]2CC[C@@H](Nc3nc4c(c(N(C)C)n3)CCCC4)CC2)c([N+](=O)[O-])c1 [compound 2020] | 3 (Class 3 The value of percent of control at 10^−7 M was more than 60% or the value of IC50 was more than 200 nM.)
8 | COc1cc(OC)cc(C(=O)N[C@H]2CC[C@@H](Nc3cc(N(C)C)c4ccccc4n3)CC2)c1 [compound 76, N-(cis-4-{[4-(dimethylamino)quinolin-2-yl]amino}cyclohexyl)-3,5-dimethoxybenzamide] | 3 (Class 3 The value of percent of control at 10^−7 M was more than 60% or the value of IC50 was more than 200 nM.)
9 | CN(C)c1nc(N[C@H]2CC[C@@H](NC(=S)Nc3ccc(/N=N/c4ccccc4)cc3)CC2)nc2c1CCCC2 [compound 2080] | 3 (Class 3 The value of percent of control at 10^−7 M was more than 60% or the value of IC50 was more than 200 nM.)

Same assay, conditions: activity class 1-3: percent of control at 10^-7 M or IC50

Row | Structure (SMILES) | class
10 | CN(C)c1ccnc(NC2CCC(CNC(=O)OCc3ccc([N+](=O)[O-])cc3)CC2)n1 (stereo not drawn) [compound 1648] | 3 (Class 3 The value of percent of control at 10^−7 M was more than 60% or the value of IC50 was more than 200 nM.)
11 | CN(C)c1nc(N[C@H]2CC[C@@H](NC(=O)OCC(C)(C)C)CC2)nc2c1CCCC2 [compound 1580] | 3 (Class 3 The value of percent of control at 10^−7 M was more than 60% or the value of IC50 was more than 200 nM.)
12 | C=CCOC(=O)NC[C@H]1CC[C@@H](Nc2nccc(N(C)C)n2)CC1 [compound 1650] | 3 (Class 3 The value of percent of control at 10^−7 M was more than 60% or the value of IC50 was more than 200 nM.)
13 | Cc1cccc(NC(=O)N[C@H]2CC[C@@H](Nc3nc4c(c(N(C)C)n3)CCCC4)CC2)c1C [compound 1696] | 3 (Class 3 The value of percent of control at 10^−7 M was more than 60% or the value of IC50 was more than 200 nM.)
14 | CC(NC(=O)NC1CCC(Nc2nc3c(c(N(C)C)n2)CCCC3)CC1)c1ccccc1 (stereo not drawn) [compound 1707] | 3 (Class 3 The value of percent of control at 10^−7 M was more than 60% or the value of IC50 was more than 200 nM.)

Same assay, conditions: activity class per percent of control at 10^-7 M or IC50

Row | Structure (SMILES) | class
15 | CN(C)c1nc(N[C@H]2CC[C@@H](NC(=O)c3ccc([N+](=O)[O-])cc3)CC2)nc2c1CCCC2 [compound 1046] | 3 (Class 3 The value of percent of control at 10^−7 M was more than 60% or the value of IC50 was more than 200 nM.)
16 | CN(C)c1cc(N[C@H]2CC[C@@H](NCc3c[nH]nc3-c3ccc(C(F)(F)F)cc3)CC2)nc2ccccc12 [compound 1098] | 3 (Class 3 The value of percent of control at 10^−7 M was more than 60% or the value of IC50 was more than 200 nM.)
17 | Cc1ccc(-c2ccc(C(=O)NC[C@H]3CC[C@@H](Nc4nc5c(c(N(C)C)n4)CCCC5)CC3)o2)c([N+](=O)[O-])c1 [compound 1074] | 3 (Class 3 The value of percent of control at 10^−7 M was more than 60% or the value of IC50 was more than 200 nM.)

Same assay, conditions: class 1-3 by percent of control at 10^-7 M or IC50

Row | Structure (SMILES) | class
18 | CN(C)c1nc(N[C@H]2CC[C@@H](NC(=O)/C=C/c3ccccc3)CC2)nc2c1CCCC2 [compound 462] | 3 (Class 3 The value of percent of control at 10^−7 M was more than 60% or the value of IC50 was more than 200 nM.)
19 | CN(C)c1nc(N[C@H]2CC[C@@H](NC(=O)c3cc(C(C)(C)C)nn3Cc3ccc(Cl)cc3Cl)CC2)nc2c1CCCC2 [compound 577] | 3 (Class 3 The value of percent of control at 10^−7 M was more than 60% or the value of IC50 was more than 200 nM.)

Same assay, conditions: class by percent of control at 10^-7 M or IC50

Row | Structure (SMILES) | class
20 | CN(C)c1ccnc(N[C@H]2CC[C@@H](NC(=O)c3cccc(OC(F)(F)F)c3)CC2)n1 [compound 272, N-(cis-4-{[4-(dimethylamino)pyrimidin-2-yl]amino}cyclohexyl)-3-(trifluoromethoxy)benzamide] | 1 (Class 1: The value of percent of control at 10^−7 M was less than 40% or the value of IC50 was less than 50 nM.)
21 | CN(C)c1ccnc(N[C@H]2CC[C@@H](NC(=O)C3=Cc4cc(Cl)ccc4OC3)CC2)n1 [compound 361, 6-chloro-N-(cis-4-{[4-(dimethylamino)pyrimidin-2-yl]amino}cyclohexyl)-2H-chromene-3-carboxamide] | 2 (Class 2: The value of percent of control at 10^−7 M was from 40% to 60% or the value of IC′50 was from 50 nM to 200 nM.)
22 | CN(C)c1ccnc(N[C@H]2CC[C@@H](NC(=O)c3cnc4ccccc4c3)CC2)n1 [compound 915] | 3 (Class 3 The value of percent of control at 10^−7 M was more than 60% or the value of IC50 was more than 200 nM.)
23 | CN(C)c1nc(N[C@H]2CC[C@@H](CNC(=O)c3cccs3)CC2)nc2c1CCCC2 [compound 614] | 3 (Class 3 The value of percent of control at 10^−7 M was more than 60% or the value of IC50 was more than 200 nM.)
24 | CN(C)c1ccnc(N[C@H]2CC[C@@H](NCc3c[nH]c4ccccc34)CC2)n1 [compound 1207] | 3 (Class 3 The value of percent of control at 10^−7 M was more than 60% or the value of IC50 was more than 200 nM.)
25 | Cc1cc(Br)cc(C)c1NC(=O)N[C@H]1CC[C@@H](Nc2cc(N(C)C)c3ccccc3n2)CC1 [compound 2120] | 1 (Class 1: The value of percent of control at 10^−7 M was less than 40% or the value of IC50 was less than 50 nM.)
26 | CN(C)c1ccnc(N[C@H]2CC[C@@H](CNC(=O)C(c3ccccc3)c3ccccc3)CC2)n1 [compound 377, N-[(cis-4-{[4-(dimethylamino)pyrimidin-2-yl]amino}cyclohexyl)methyl]-2,2-diphenylacetamide] | 1 (Class 1: The value of percent of control at 10^−7 M was less than 40% or the value of IC50 was less than 50 nM.)
27 | CN(C)c1nc(N[C@H]2CC[C@@H](CNCc3cc(Cl)cc(Br)c3O)CC2)nc2c1CCCC2 [compound 1404] | 2 (Class 2: The value of percent of control at 10^−7 M was from 40% to 60% or the value of IC′50 was from 50 nM to 200 nM.)
28 | Cc1cc(C(=O)N[C@H]2CC[C@@H](Nc3nc4c(c(N(C)C)n3)CCCC4)CC2)ccc1[N+](=O)[O-] [compound 965] | 1 (Class 1: The value of percent of control at 10^−7 M was less than 40% or the value of IC50 was less than 50 nM.)
29 | CCc1cccc(C)c1NC(=O)N[C@H]1CC[C@@H](Nc2nccc(N(C)C)n2)CC1 [compound 2182] | 3 (Class 3 The value of percent of control at 10^−7 M was more than 60% or the value of IC50 was more than 200 nM.)
30 | Cc1cc(C(=O)NC[C@H]2CC[C@@H](Nc3cc(N(C)C)c4ccccc4n3)CC2)ccc1[N+](=O)[O-] [compound 803, N-[(cis-4-{[4-(dimethylamino)quinolin-2-yl]amino}cyclohexyl)methyl]-3-methyl-4-nitrobenzamide] | 3 (Class 3 The value of percent of control at 10^−7 M was more than 60% or the value of IC50 was more than 200 nM.)
31 | Cc1ccc(CNC(=O)N[C@H]2CC[C@@H](Nc3nc4c(c(N(C)C)n3)CCCC4)CC2)cc1 [compound 1895] | 3 (Class 3 The value of percent of control at 10^−7 M was more than 60% or the value of IC50 was more than 200 nM.)

Same assay, conditions: class by percent of control at 10^−7 M or IC50

Row | Structure (SMILES) | class
32 | Cc1nc(N[C@H]2CC[C@@H](NC(=O)c3ccc(Cl)cc3)CC2)nc(N(C)C)c1C [compound 2847, 4-chloro-N-(cis-4-{[4-(dimethylamino)-5,6-dimethylpyrimidin-2-yl]amino}cyclohexyl)benzamide] | 1 (Class 1: The value of percent of control at 10^−7 M was less than 40% or the value of IC50 was less than 50 nM.)
33 | Cc1cc(C(=O)N[C@H]2CC[C@@H](CNc3ncc(C)c(N(C)C)n3)CC2)ccc1F [compound 2718] | 2 (Class 2: The value of percent of control at 10^−7 M was from 40% to 60% or the value of IC′50 was from 50 nM to 200 nM.)
34 | CCOc1cccc(C(=O)N[C@H]2CC[C@@H](Nc3nc(C)cc(N(C)C)n3)CC2)c1 [compound 2976, N-(cis-4-{[4-(dimethylamino)-6-methylpyrimidin-2-yl]amino}cyclohexyl)-3-ethoxybenzamide] | 2 (Class 2: The value of percent of control at 10^−7 M was from 40% to 60% or the value of IC′50 was from 50 nM to 200 nM.)
35 | Cc1cnc(N[C@H]2CC[C@@H](NC(=O)N(C)c3cccc(Cl)c3)CC2)nc1N(C)C [compound 3021, N-(3-chlorophenyl)-N′-(cis-4-{[4-(dimethylamino)-5-methylpyrimidin-2-yl]amino}cyclohexyl)-N-methylurea] | 1 (Class 1: The value of percent of control at 10^−7 M was less than 40% or the value of IC50 was less than 50 nM.)
36 | Cc1cnc(N[C@H]2CC[C@@H](NC(=O)C[S+]([O-])c3ccccc3C(F)(F)F)CC2)nc1N(C)C (relative stereo) [compound 2880] | 1 (Class 1: The value of percent of control at 10^−7 M was less than 40% or the value of IC50 was less than 50 nM.)
